Results published in ChEMBL document CHEMBL5380777, “Efficacy, Mechanism, and Structure-Activity Relationship of 6-Methoxy Benzofuran Derivatives as a Useful Tool for Senile Osteoporosis” (J Med Chem, 2023).
The source made the active and inactive calls. The rule behind the calls is not given here.

Columns and labels:
Osteoblast [1] = assay: Upregulation of transcription factor […] expression in 16 months old C57 mouse osteoblast by scRNA-seq analysis; assay type: functional, cell-based
Mus musculus [2] = assay: Anti osteoporosis in 16 months old C57 mouse assessed as reconstruction of bone microstructure administered at 30 mg/kg/day, IG continuously for 4 months by micro CT analysis relative to aged control group; assay type: functional, organism-based
Mus musculus [3] = assay: Anti osteoporosis in 16 months old C57 mouse assessed as granulocyte level in femur administered at 30 mg/kg/day, IG continuously for 4 months by scRNA-seq analysis (reference value: 28.33%); assay type: functional; conditions: 2920 h
Osteoblast [4] = assay: Regulation of osteogenesis in 16 months old C57 mouse osteoblast endoplasmic reticulum assessed as increase in Hspa1b gene by scRNA-seq analysis; assay type: functional, cell-based
[5] = Toxicity in 2.5 months old SAMP-6 rapid aging mouse model assessed as change in creatinine level administered at 30 mg/kg/day, IG continuously for 3 months; assay type: organism-based; conditions: in vivo, po, 2190 h
[6] = Toxicity in 2.5 months old SAMP-6 rapid aging mouse model assessed as morphological change in kidney administered at 30 mg/kg/day, IG continuously for 3 months by hematoxylin and eosin staining analysis; assay type: organism-based; conditions: in vivo, po, 2190 h
Osteocyte = assay: Upregulation of BMP-2 expression in 16 months old C57 mouse osteocytes by scRNA-seq analysis; assay type: functional, cell-based
Mus musculus [7] = assay: Anti osteoporosis in 16 months old C57 mouse assessed as increase in bone mass administered at 30 mg/kg/day, IG continuously for 4 months by micro CT analysis relative to young control group; assay type: functional, organism-based
[8] = Toxicity in 2.5 months old SAMP-6 rapid aging mouse model assessed as change in ALP level administered at 30 mg/kg/day, IG continuously for 3 months; assay type: organism-based; conditions: in vivo, po, 2190 h
[9] = Toxicity in 16 months old C57 mouse assessed as change in alkaline phosphatase level administered at 30 mg/kg/day, IG continuously for 4 months; assay type: organism-based; conditions: in vivo, po, 2920 h
Mus musculus [10] = assay: Anti osteoporosis in 16 months old C57 mouse assessed as increase in bone mass in femur from proximal end to the distal end administered at 30 mg/kg/day, IG continuously for 2 to 4 months by micro CT analysis relative to aged control group; assay type: functional, organism-based; conditions: time 2-4 months
[11] = Toxicity in 2.5 months old SAMP-6 rapid aging mouse model assessed as change in serum ALT level administered at 30 mg/kg/day, IG continuously for 3 months; assay type: organism-based; conditions: in vivo, po, 2190 h
[12] = Toxicity in 2.5 months old SAMP-6 rapid aging mouse model assessed as morphological change in liver administered at 30 mg/kg/day, IG continuously for 3 months by hematoxylin and eosin staining analysis; assay type: organism-based; conditions: in vivo, po, 2190 h
Mus musculus [13] = assay: Anti osteoporosis in 2.5 months old SAMP-6 rapid aging mouse model assessed as increase in osteoblast formation administered at 30 mg/kg/day, IG continuously for 3 months; assay type: functional, organism-based
Mus musculus [14] = assay: Anti osteoporosis in 16 months old C57 mouse assessed as B cell level in femur administered at 30 mg/kg/day, IG continuously for 4 months by scRNA-seq analysis (reference value: 5.19%); assay type: functional; conditions: 2920 h
[15] = Toxicity in 16 months old C57 mouse assessed as change in serum ALT level administered at 30 mg/kg/day, IG continuously for 4 months; assay type: organism-based; conditions: in vivo, po, 2920 h
[16] = Toxicity in 2.5 months old SAMP-6 rapid aging mouse model assessed as change in urea level administered at 30 mg/kg/day, IG continuously for 3 months in presence of ALN; assay type: organism-based; conditions: in vivo, po, 2190 h
Mus musculus [17] = assay: Anti osteoporosis in 16 months old C57 mouse assessed as osteoclast level in femur administered at 30 mg/kg/day, IG continuously for 4 months by scRNA-seq analysis (reference value: 6.52%); assay type: functional; conditions: 2920 h
Mus musculus [18] = assay: Anti osteoporosis in 16 months old C57 mouse assessed as erythroblast level in femur administered at 30 mg/kg/day, IG continuously for 4 months by scRNA-seq analysis (reference value: 1.91%); assay type: functional; conditions: 2920 h
[19] = Toxicity in 2.5 months old SAMP-6 rapid aging mouse model assessed as change in serum AST level administered at 30 mg/kg/day, IG continuously for 3 months; assay type: organism-based; conditions: in vivo, po, 2190 h
Osteoblast [20] = assay: Upregulation of transcription factor XBP1 expression in 16 months old C57 mouse osteoblast by scRNA-seq analysis; assay type: functional, cell-based
Mus musculus [21] = assay: Anti osteoporosis in 16 months old C57 mouse assessed as dendritic cell level in femur administered at 30 mg/kg/day, IG continuously for 4 months by scRNA-seq analysis (reference value: 1.34%); assay type: functional; conditions: 2920 h
[22] = Toxicity in 16 months old C57 mouse assessed as change in albumin level administered at 30 mg/kg/day, IG continuously for 4 months; assay type: organism-based; conditions: in vivo, po, 2920 h
Mus musculus [23] = assay: Anti osteoporosis in 2.5 months old SAMP-6 rapid aging mouse model assessed as increase in bone mass administered at 30 mg/kg/day, IG continuously for 3 months by micro CT analysis; assay type: functional, organism-based
Mus musculus [24] = assay: Anti osteoporosis in 16 months old C57 mouse assessed as increase in bone mass administered at 30 mg/kg/day, IG continuously for 4 months by micro CT analysis relative to aged control group; assay type: functional, organism-based
Osteoblast [25] = assay: Upregulation of transcription factor HMGA1 expression in 16 months old C57 mouse osteoblast by scRNA-seq analysis; assay type: functional, cell-based
Osteoblast [26] = assay: Upregulation of transcription factor CSDE1 expression in 16 months old C57 mouse osteoblast by scRNA-seq analysis; assay type: functional, cell-based
Osteoclast = assay: Upregulation of BMP-2 expression in 16 months old C57 mouse osteoclast by scRNA-seq analysis; assay type: functional, cell-based
Osteoblast [27] = assay: Regulation of osteogenesis in 16 months old C57 mouse osteoblast endoplasmic reticulum assessed as increase in Dnaja1 gene by scRNA-seq analysis; assay type: functional, cell-based
Osteoblast [28] = assay: Regulation of osteogenesis in 16 months old C57 mouse osteoblast endoplasmic reticulum assessed as increase in Atf4 gene by scRNA-seq analysis; assay type: functional, cell-based
[29] = Toxicity in 16 months old C57 mouse assessed as change in urea level administered at 30 mg/kg/day, IG continuously for 4 months; assay type: organism-based; conditions: in vivo, po, 2920 h
Osteoblast [30] = assay: Upregulation of transcription factor JUND expression in 16 months old C57 mouse osteoblast by scRNA-seq analysis; assay type: functional, cell-based
[31] = Toxicity in 2.5 months old SAMP-6 rapid aging mouse model assessed as morphological change in kidney administered at 30 mg/kg/day, IG continuously for 3 months in presence of ALN by hematoxylin and eosin staining analysis; assay type: organism-based; conditions: in vivo, po, 2190 h
Osteoblast [32] = assay: Upregulation of transcription factor MKRN1 expression in 16 months old C57 mouse osteoblast by scRNA-seq analysis; assay type: functional, cell-based
Osteoblast [33] = assay: Regulation of osteogenesis in 16 months old C57 mouse osteoblast endoplasmic reticulum assessed as increase in Hsp90ab1 gene by scRNA-seq analysis; assay type: functional, cell-based
[34] = Toxicity in 2.5 months old SAMP-6 rapid aging mouse model assessed as morphological change in liver administered at 30 mg/kg/day, IG continuously for 3 months in presence of ALN by hematoxylin and eosin staining analysis; assay type: organism-based; conditions: in vivo, po, 2190 h
[35] = Toxicity in 2.5 months old SAMP-6 rapid aging mouse model assessed as change in body weight administered at 30 mg/kg/day, IG in presence of ALN continuously for 3 months; assay type: organism-based; conditions: in vivo, po, 2190 h
Mus musculus [36] = assay: Anti osteoporosis in 16 months old C57 mouse assessed as fold increase in chondrocytes level in femur administered at 30 mg/kg/day, IG continuously for 4 months by scRNA-seq analysis relative to control; assay type: functional; conditions: 2920 h

SMILES: COc1ccc2cc(C(=O)NCCN(C)C)oc2c1.CS(=O)(=O)O
- Activity (Osteoblast [1]): Active
- Activity (Mus musculus [2]): Active
- Activity (Mus musculus [3]): 34.01%
- Activity (Osteoblast [4]): Active
- Activity [5]: Non-Toxic
- Activity [6]: Non-Toxic
- Activity (Osteocyte): Active
- Activity (Mus musculus [7]): Active
- Activity [8]: Non-Toxic
- Activity [9]: Non-Toxic
- Activity (Mus musculus [10]): Active
- Activity [11]: Non-Toxic
- Activity [12]: Non-Toxic
- Activity (Mus musculus [13]): Active
- Activity (Mus musculus [14]): 3.05%
- Activity [15]: Non-Toxic
- Activity [16]: Non-Toxic
- Activity (Mus musculus [17]): 12.12%
- Activity (Mus musculus [18]): 1.42%
- Activity [19]: Non-Toxic
- Activity (Osteoblast [20]): Active
- Activity (Mus musculus [21]): 0.68%
- Activity [22]: Non-Toxic
- Activity (Mus musculus [23]): Active
- Activity (Mus musculus [24]): Active
- Activity (Osteoblast [25]): Active
- Activity (Osteoblast [26]): Active
- Activity (Osteoclast): Active
- Activity (Osteoblast [27]): Active
- Activity (Osteoblast [28]): Active
- Activity [29]: Non-Toxic
- Activity (Osteoblast [30]): Active
- Activity [31]: Non-Toxic
- Activity (Osteoblast [32]): Active
- Activity (Osteoblast [33]): Active
- Activity [34]: Non-Toxic
- Activity [35]: Non-Toxic
- fold change (FC) (Mus musculus [36]): 2
